Test results from patent US11400059B2, “Treatment of pain and/or pain related symptoms associated with dysmenorrhea” (ALYRA BIOTECH PTY LTD, priority 2017, dated 2022).

Tests used:
Assay type in all cases: cell-based
Human TLR4 = molecular target: T1, Human TLR4 (Homo sapiens, UniProt O00206+Q9Y6Y9); assay: Human TLR antagonist screening, NF-κB SEAP reporter in HEK293 cells; details: antagonist mode, test article 1 μM, +LPS-EK 10 ng/mL, No Sample 14, Control− 1
T1 construct: expressed in transfected cells; host or cells: HEK293
T1 sequence (O00206 24-839): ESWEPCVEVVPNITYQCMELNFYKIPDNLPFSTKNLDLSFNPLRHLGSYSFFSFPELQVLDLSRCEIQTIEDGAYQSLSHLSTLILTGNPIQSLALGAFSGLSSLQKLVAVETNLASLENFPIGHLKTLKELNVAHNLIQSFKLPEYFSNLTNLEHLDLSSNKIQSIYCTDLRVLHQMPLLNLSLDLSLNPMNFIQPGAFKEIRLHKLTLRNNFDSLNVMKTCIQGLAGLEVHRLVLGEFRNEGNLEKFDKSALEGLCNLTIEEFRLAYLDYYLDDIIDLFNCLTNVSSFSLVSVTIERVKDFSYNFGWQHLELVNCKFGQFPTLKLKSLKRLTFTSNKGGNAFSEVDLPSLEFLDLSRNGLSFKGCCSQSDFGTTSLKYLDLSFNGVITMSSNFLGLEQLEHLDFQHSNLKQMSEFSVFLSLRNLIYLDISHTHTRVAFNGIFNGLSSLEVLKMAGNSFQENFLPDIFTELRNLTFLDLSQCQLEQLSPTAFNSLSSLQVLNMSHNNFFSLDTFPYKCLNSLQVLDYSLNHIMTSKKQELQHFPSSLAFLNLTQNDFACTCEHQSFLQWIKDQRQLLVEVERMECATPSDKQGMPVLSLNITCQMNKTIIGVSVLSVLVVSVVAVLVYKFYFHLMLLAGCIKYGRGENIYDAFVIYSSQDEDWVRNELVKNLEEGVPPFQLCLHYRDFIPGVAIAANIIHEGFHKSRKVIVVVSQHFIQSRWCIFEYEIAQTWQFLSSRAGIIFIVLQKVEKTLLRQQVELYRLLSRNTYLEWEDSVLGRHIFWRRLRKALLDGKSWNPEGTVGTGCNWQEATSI
T1 sequence (Q9Y6Y9 19-160): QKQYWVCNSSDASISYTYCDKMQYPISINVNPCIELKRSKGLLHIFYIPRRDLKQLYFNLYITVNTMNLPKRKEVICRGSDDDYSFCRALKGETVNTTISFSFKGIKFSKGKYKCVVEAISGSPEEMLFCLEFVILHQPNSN
Procedure: (§1) Toll-Like Receptor (TLR), NOD-Like Receptor (NLR) and C-Type Lectin Receptor (CLR) stimulation were tested by assessing NF-κB activation in HEK293 cells expressing a given TLR, NLR or CLR. The activity of the test articles was tested at one concentration and compared to control ligands. These steps were performed in triplicate. hTLR4: […] In a 96-well plate (200 μL total volume) containing the appropriate cells (50,000-75,000 cells/well), 20 μL of the test article or the positive control ligand was added to the wells. For the antagonist assay, the test article was incubated with the cells, at 37° C. with 5% CO2, for 30 minutes prior to the addition of the positive control ligand to the wells. The media added to the wells was designed for the detection of NF-κB induced SEAP expression. After a 16-24 hr incubation the optical density (OD) was read at 650 nm on a Molecular Devices SpectraMax 340PC absorbance detector. Fold induction (ratio of average induced value to average non-induced value) was determined for each TLR, NOD1, NOD2, Dectin-1a, Dectin-1b.

hTLR5 = molecular target: T2, hTLR5 (Homo sapiens, UniProt O60602); assay: as above; details: antagonist mode, test article 1 μM, +FLA-ST 50 ng/ml, No Sample 34, Control− 1
T2 construct: expressed in transfected cells; host or cells: HEK293
T2 sequence (O60602 21-858): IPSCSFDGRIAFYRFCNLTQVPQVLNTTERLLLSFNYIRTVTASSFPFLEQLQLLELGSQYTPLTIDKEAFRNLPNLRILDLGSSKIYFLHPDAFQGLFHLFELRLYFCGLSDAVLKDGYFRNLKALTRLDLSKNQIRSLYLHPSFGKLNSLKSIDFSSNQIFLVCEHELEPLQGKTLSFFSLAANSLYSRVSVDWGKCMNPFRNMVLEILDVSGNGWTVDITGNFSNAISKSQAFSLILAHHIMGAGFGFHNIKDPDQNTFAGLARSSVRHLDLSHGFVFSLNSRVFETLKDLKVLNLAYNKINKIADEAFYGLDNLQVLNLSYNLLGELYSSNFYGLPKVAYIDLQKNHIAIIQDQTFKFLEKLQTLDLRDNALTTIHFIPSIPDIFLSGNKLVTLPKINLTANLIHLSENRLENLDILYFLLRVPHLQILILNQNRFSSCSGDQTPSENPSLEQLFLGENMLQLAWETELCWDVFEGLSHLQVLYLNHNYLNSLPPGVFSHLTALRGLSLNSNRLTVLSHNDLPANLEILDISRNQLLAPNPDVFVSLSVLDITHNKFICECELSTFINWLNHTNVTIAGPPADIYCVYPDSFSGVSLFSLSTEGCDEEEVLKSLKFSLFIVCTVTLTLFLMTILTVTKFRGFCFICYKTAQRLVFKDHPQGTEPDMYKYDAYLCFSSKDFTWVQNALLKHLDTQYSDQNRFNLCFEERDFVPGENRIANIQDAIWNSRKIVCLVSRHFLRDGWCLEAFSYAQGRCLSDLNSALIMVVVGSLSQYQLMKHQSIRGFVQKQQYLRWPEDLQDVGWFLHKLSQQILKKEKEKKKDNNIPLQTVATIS
Procedure: as §1, with “triplicate.” for “triplicate. hTLR4:”, “After a 16-24 hr incubation the optical density (OD) was read at 650 nm on a Molecular Devices SpectraMax 340PC absorbance detector.” left out

hTLR7 = molecular target: T3, hTLR7 (Homo sapiens, UniProt Q9NYK1); assay: as above; details: antagonist mode, test article 1 μM, +CL307 10 ng/ml, No Sample 13, Control− 1
T3 construct: expressed in transfected cells; host or cells: HEK293
T3 sequence (Q9NYK1 27-1049): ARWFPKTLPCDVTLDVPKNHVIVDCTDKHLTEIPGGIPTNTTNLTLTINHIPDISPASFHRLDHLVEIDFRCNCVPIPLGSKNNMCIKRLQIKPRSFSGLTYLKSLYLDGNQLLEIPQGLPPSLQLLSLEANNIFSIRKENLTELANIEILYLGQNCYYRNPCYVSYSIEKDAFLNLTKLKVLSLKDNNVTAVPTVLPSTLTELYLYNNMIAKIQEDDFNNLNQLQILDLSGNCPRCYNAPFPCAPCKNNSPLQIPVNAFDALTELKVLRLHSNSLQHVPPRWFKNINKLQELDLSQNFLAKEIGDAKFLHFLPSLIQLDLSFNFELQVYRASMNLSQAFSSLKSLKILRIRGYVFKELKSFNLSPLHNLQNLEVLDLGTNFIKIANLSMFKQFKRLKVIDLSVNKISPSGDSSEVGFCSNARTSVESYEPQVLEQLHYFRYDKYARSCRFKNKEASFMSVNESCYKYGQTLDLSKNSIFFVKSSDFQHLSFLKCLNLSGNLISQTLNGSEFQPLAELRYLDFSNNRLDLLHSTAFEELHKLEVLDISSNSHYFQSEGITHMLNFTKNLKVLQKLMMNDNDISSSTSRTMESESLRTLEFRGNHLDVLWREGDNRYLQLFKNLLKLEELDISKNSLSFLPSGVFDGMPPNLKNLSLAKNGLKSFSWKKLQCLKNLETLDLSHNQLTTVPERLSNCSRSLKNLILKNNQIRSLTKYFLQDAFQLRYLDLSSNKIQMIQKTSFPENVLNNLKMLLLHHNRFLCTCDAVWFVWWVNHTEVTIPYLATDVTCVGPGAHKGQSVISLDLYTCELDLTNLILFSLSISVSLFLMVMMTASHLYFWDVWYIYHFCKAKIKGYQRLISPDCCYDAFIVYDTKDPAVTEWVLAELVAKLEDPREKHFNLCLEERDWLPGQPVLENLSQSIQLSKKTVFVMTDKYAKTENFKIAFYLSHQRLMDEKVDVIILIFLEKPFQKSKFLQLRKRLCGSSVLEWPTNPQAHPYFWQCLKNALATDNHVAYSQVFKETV
Procedure: Toll-Like Receptor (TLR), NOD-Like Receptor (NLR) and C-Type Lectin Receptor (CLR) stimulation were tested by assessing NF-κB activation in HEK293 cells expressing a given TLR, NLR or CLR. The activity of the test articles was tested at one concentration and compared to control ligands. These steps were performed in triplicate. hTLR7: CL307 at 1 μg/mL Antagonist: 10 ng/mL. In a 96-well plate (200 μL total volume) containing the appropriate cells (50,000-75,000 cells/well), 20 μL of the test article or the positive control ligand was added to the wells. For the antagonist assay, the test article was incubated with the cells, at 37° C. with 5% CO2, for 30 minutes prior to the addition of the positive control ligand to the wells. The media added to the wells was designed for the detection of NF-κB induced SEAP expression. […] Fold induction (ratio of average induced value to average non-induced value) was determined for each TLR, NOD1, NOD2, Dectin-1a, Dectin-1b.

[1] = system: HEK293/Null1 and HEK293/Null2; assay: Antagonist screening on TLR−/NLR− control cell lines stimulated with TNFa; details: stimulated with TNFa at 10 ng/mL
Procedure: Toll-Like Receptor (TLR), NOD-Like Receptor (NLR) and C-Type Lectin Receptor (CLR) stimulation were tested by assessing NF-κB activation in HEK293 cells expressing a given TLR, NLR or CLR. The activity of the test articles was tested at one concentration and compared to control ligands. These steps were performed in triplicate. In a 96-well plate (200 μL total volume) containing the appropriate cells (50,000-75,000 cells/well), 20 μL of the test article or the positive control ligand was added to the wells. For the antagonist assay, the test article was incubated with the cells, at 37° C. with 5% CO2, for 30 minutes prior to the addition of the positive control ligand to the wells. The media added to the wells was designed for the detection of NF-κB induced SEAP expression. After a 16-24 hr incubation the optical density (OD) was read at 650 nm on a Molecular Devices SpectraMax 340PC absorbance detector.

SMILES	Fold Induction (Human TLR4)	Fold Induction (hTLR5)	Fold Induction (hTLR7)	Fold Induction (hTLR7; listed as Nor)	effect on TLR−/NLR− control cell lines [1]	Fold Induction (Human TLR4; listed as Ami)	Fold Induction (hTLR5; listed as Ami)	Fold Induction (hTLR7; listed as Ami)
CNCCC=C1c2ccccc2CCc2ccccc21 [Nortriptyline]	14	34	slight potentiating	16	slight inhibitory effect	–	–	–
CN(C)CCC=C1c2ccccc2CCc2ccccc21 [Amitriptyline]	slight inhibitory effect	slight inhibitory effect	slight potentiating effect	–	slight inhibitory effect	12	33	16
